Measurements published in US20250059205A1, “Heterocyclic Compounds and Methods of Use” (AMGEN INC., priority 2021, published 2025).

Assays:
[1] = target: GDP-bound KRAS protein (aa 1-169), containing both G12D and C118A amino acid substitutions (Homo sapiens, UniProt P01116, C118A/G12D); experiment: KRAS G12D Coupled Nucleotide Exchange Assay; assay type: biochemical; settings: 2 h compound pre-incubation
Procedure: Following compound pre-incubation, purified SOS protein (aa 564-1049) and GTP (Roche 10106399001) were added to the assay wells and incubated for an additional 30 min. […] The assay plates were then read on a PerkinElmer EnVision Multilabel Reader, using AlphaScreen® technology, and data were analyzed using a 4-parameter logistic model to calculate IC50 values.

[2] = system: Phosphorylation of ERK1/2 in AsPC-1 cells; experiment: Phospho-ERK1/2 MSD Assay (AsPC-1 cells); assay type: cell-based; settings: Homo sapiens, ASPC1, 2 h, 2 hours treatment, read-out: p-ERK (AsPC-1 cells) IC50
Summary of the method: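 Read-out: MSD electrochemiluminescent detection of phosphorylated ERK1/2 in whole-cell lysates, fitted to a 4-parameter logistic curve for IC50. Prior to lysis, AsPC-1 cells (25,000 per well) received a 2 h compound dose-response at 37 °C.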

[3] = system: Phosphorylation of ERK1/2 in A-427 cells; experiment: Phospho-ERK1/2 MSD Assay (A-427 cells); assay type: cell-based; settings: Homo sapiens, A-427, 2 h, 2 h treatment, read-out: p-ERK (A427 cells) IC50
Summary of the method: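 ERK1/2 phosphorylation measured by Meso Scale whole-cell lysate assay after A-427 cells were exposed to a titration of compound for 2 h at 37 °C.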

[4] = target: His-tagged KRAS G12D protein (Homo sapiens, UniProt P01116, G12D); experiment: KRAS G12D TR-FRET Assay; assay type: binding
His-tagged KRAS G12D protein, sequence (P01116 1-188 isoform P01116-2 G12D): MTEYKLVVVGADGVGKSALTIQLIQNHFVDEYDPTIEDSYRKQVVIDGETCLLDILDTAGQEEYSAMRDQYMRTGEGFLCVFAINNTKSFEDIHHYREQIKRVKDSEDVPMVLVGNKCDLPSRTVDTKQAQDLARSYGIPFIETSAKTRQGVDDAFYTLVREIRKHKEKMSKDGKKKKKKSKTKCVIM

GDP-bound KRAS protein (aa 1-169), containing both G12D and C118A amino acid substitutions, sequence (P01116 1-169 isoform P01116-2 G12D/C118A): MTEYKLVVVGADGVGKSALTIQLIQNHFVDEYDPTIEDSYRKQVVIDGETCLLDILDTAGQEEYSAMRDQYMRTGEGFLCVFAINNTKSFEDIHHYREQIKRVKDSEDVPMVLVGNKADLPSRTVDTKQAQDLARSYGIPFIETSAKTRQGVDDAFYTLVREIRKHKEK

## CCc1c(F)ccc2cc(O)cc(-c3c(F)cc4c(N5[C@@H]6CNC[C@H]5COC6)nc(OC[C@@]56CCCN5C[C@H](F)C6)nc4c3F)c12 [Example 151, 4-(4-((1R,5S)-3-oxa-7,9-diazabicyclo[3.3.1]nonan-9-yl)-6,8-difluoro-2-(((2R,7aS)-2-fluorotetrahydro-1H-pyrrolizin-7a(5H)-yl)methoxy)quinazolin-7-yl)-5-ethyl-6-fluoronaphthalen-2-ol]
[1]
  Avg 2 h Coupled Exchange IC50: 3 nM
[2]
  IC50: 123 nM
[3]
  IC50: 65 nM
[4]
  IC50: 4 nM

## Fc1c(-c2cccc(Cl)c2C(F)(F)F)ccc2c(N3C[C@H]4CC[C@@H](C3)N4)nc(OC[C@@]34CCCN3C[C@H](F)C4)nc12 [Example 156, 4-((1R,5S)-3,8-diazabicyclo[3.2.1]octan-3-yl)-7-(3-chloro-2-(trifluoromethyl)phenyl)-8-fluoro-2-(((2R,7aS)-2-fluorotetrahydro-1H-pyrrolizin-7a(5H)-yl)methoxy) quinazoline]
[1]
  Avg 2 h Coupled Exchange IC50: 3 nM
[2]
  IC50: 881 nM
[3]
  IC50: 1180 nM
[4]
  IC50: 7 nM

## Cc1c(Cl)cc2[nH]ncc2c1-c1ccc2c(N3C[C@H]4CC[C@@H](C3)N4)nc(OC[C@@]34CCCN3C[C@H](F)C4)nc2c1F [Example 192, 4-((1R,5S)-3,8-Diazabicyclo[3.2.1]octan-3-yl)-7-(6-chloro-5-methyl-1H-indazol-4-yl)-8-fluoro-2-(((2R,7aS)-2-fluorotetrahydro-1H-pyrrolizin-7a(5H)-yl)methoxy)quinazoline]
[1]
  Avg 2 h Coupled Exchange IC50: 2 nM
[2]
  IC50: 532 nM
[3]
  IC50: 150 nM
[4]
  IC50: 4 nM

## Nc1ccc(C(F)(F)F)c(-c2ccc3c(N4C[C@H]5CC[C@@H](C4)N5)nc(OC[C@@]45CCCN4C[C@H](F)C5)nc3c2F)n1 [Example 223, 6-(4-((1R,5S)-3,8-diazabicyclo[3.2.1]octan-3-yl)-8-fluoro-2-(((2R,7aS)-2-fluorotetrahydro-1H-pyrrolizin-7a(5H)-yl)methoxy)quinazolin-7-yl)-5-(trifluoromethyl) pyridin-2-amine]
[1]
  Avg 2 h Coupled Exchange IC50: 15 nM
[2]
  IC50: 3030 nM
[3]
  IC50: 894 nM
[4]
  IC50: 44 nM

## CCc1c(F)ccc2cc(O)cc(-c3ccc4c(N5C[C@H]6CC[C@@H](C5)N6)nc(OCCC(C)(C)O)nc4c3F)c12 [Example 132, 4-(4-((1R,5S)-3,8-diazabicyclo[3.2.1]octan-3-yl)-8-fluoro-2-(3-hydroxy-3-methylbutoxy)quinazolin-7-yl)-5-ethyl-6-fluoronaphthalen-2-ol]
[1]
  Avg 2 h Coupled Exchange IC50: 6 nM
[2]
  IC50: 1200 nM
[3]
  IC50: 1690 nM
[4]
  IC50: 16 nM

## CCc1c(F)ccc2cc(O)cc(-c3ccc4c(N5C[C@H]6CC[C@@H](C5)N6)nc(OC[C@@]56CCCN5C[C@H](F)C6)nc4c3F)c12 [Example 87, 4-(4-((1R,5S)-3,8-diazabicyclo[3.2. 1]octan-3-yl)-8-fluoro-2-(((2R,7aS)-2-fluorotetrahydro-1H-pyrrolizin-7a(5H)-yl)methoxy)quinazolin-7-yl)-5-ethyl-6-fluoronaphthalen-2-ol]
[1]
  Avg 2 h Coupled Exchange IC50: 10 nM
[2]
  IC50: 16 nM
[3]
  IC50: 6 nM
[4]
  IC50: 7 nM

## Cc1ccc2[nH]nc(C)c2c1-c1ccc2c(N3C[C@H]4CC[C@@H](C3)N4)nc(OC[C@@]34CCCN3C[C@H](F)C4)nc2c1F [Example 209, 4-((1R,5S)-3,8-diazabicyclo[3.2.1]octan-3-yl)-7-(3,5-dimethyl-1H-indazol-4-yl)-8-fluoro-2-(((2R,7aS)-2-fluorotetrahydro-1H-pyrrolizin-7a(5H)-yl)methoxy) quinazoline]
[1]
  Avg 2 h Coupled Exchange IC50: 24 nM
[2]
  IC50: 2570 nM
[3]
  IC50: 1620 nM
[4]
  IC50: 68 nM
